According to patent US20130310431A1, “USES FOR SUBSTITUTED 2-AMINO-THIAZOLONES IN TREATING ALZHEIMER'S DISEASE” (Amgen Inc, priority 2010, published 2013):
“Also recorded” adds a separate entry of the source.

What was measured:
[1] = tested on: aged Wistar rats; experiment: Novel object recognition study (reversal of age-related behavioral deficits); assay type: in vivo; settings: aged (20 months) Wistar rats, 14 day treatment, 3, 10, 30 mg/kg; compared to galantamine; FIG. 1; listed as AMG221
Experimental: Thus, over a 14 day treatment period, young and aged (20 months) Wistar rats were administered formulations as follows: […]
1. Young: pharmaceutical vehicle (no active agent);
2. Young: galantamine, an acetylcholinesterase inhibitor as a positive control;

[2] = Concentration vs. time profiles in plasma, CSF, brain regions and fat after intravenous infusion; assay type: in vivo, cynomolgus monkeys; settings: cynomolgus monkey, intravenous infusion for 1 hour
Experimental: The concentration of AMG221 in the biological samples described above was measured as a function of time.
The concentration of (B) in the biological samples described above was measured as a function of time.

| Compound | improvement in novel object recognition [1] | distribution within central nervous system versus fat [2] | time concentrations exceeded the cynomolgus Ki for 11β-HSD1 in unbound plasma [2] | time concentrations exceeded the cynomolgus Ki for 11β-HSD1 in CSF ([2]; CSF) | distribution into fat ([2]; relative to AMG221) |
| --- | --- | --- | --- | --- | --- |
| CC(C)[C@]1(C)SC(N[C@H]2C[C@@H]3CC[C@H]2C3)=NC1=O [Compound (A)] | reverses age-related behavioral deficits; also recorded: superior improvement in novel object recognition | distributed uniformly and more rapidly within the central nervous system than in fat | three |  |  |
| CC(C)[C@]1(C)SC(N[C@H]2C[C@H]3C[C@@H]2C[C@@H]3O)=NC1=O [Compound (B)] |  | distributed uniformly and more rapidly within the central nervous system than in fat | eight | five | distributed poorly into fat |
